Data published in patent US4948880A, “Anthracycline derivatives having cytostatic activity” (Behringwerke Aktiengesellschaft, priority 1986, dated 1990).
≈ marks a conversion by molar mass, not a printed value. Counter-ions that a name gives are not always drawn. Like-named read-outs stand apart in the source and are kept apart here.

How the values were obtained:
[1] = test system: mouse L1210 leukemia cells; test: Formation of L1210 leukemia cell colonies in soft agar (cytostatic activity); format: cell-based; conditions: colonies > 60 μm, % of untreated control; for IC50: Mus musculus
Description: The cytostatic activity of the compounds according to the invention have been tested using mouse L1210 leukemia cells. Use was made for this by the formation of L1210 leukemia cell colonies in agar plates. This method is used to detect the effect of the test substances on the growth behavior of the cells over 1 hour or over several generations. In this connection, with a cell cycle time of 10-12 hours, about 14 consecutive generations are observed in a 7-day duration of the test. In this test, the substances having cytostatic activity according to the invention bring about a reduction, compared with an untreated control sample, in the number of colonies which is to be observed.
Procedure for Determining the Formation of L1210 Leukemia Cell Colonies in Soft Agar
500 leukemia cells per plate were incubated with various concentrations of the test substance at 37° C. for 1 hour. These cells were then washed twice with McCoy 5A medium, 0.3% agar was added, and finally the mixture was poured into Petri dishes. Controls were incubated only with fresh medium. In place of the incubation for one hour, in some cases various concentrations and test substances were mixed with the upper agar layer in order in this way to achieve continuous exposure of the cells throughout the incubation time. After the agar had solidified, the plates were incubated in an incubator at 37° C. for 7 days (5% by volume CO2, 95% relative atmospheric humidity). Thereafter the number of colonies with a diameter of more than 60 μm which had formed was counted. The results have been stated as the number of colonies in treated agar plates as a percentage of the untreated control. The dose-effect graph obtained in this way was used to determine the IC50 as a measure of the activity of the substance. The results for the compounds described here are compiled in Table 1 which follows, comparing with adriamycin.

[2] = light / sunlight; cited from earlier work
[3] = L1210, 168 h, continuous exposure, test substance mixed with upper agar layer, 7 days, 37° C., read-out: Continuous incubation IC50
[4] = L1210, 1 hour incubation with test substance at 37° C., then washed, 7 days in agar, read-out: 1 h incubation IC50
[5] = L1210, 168 h, read-out: Continuous incubation IC50, continuous exposure, test substance mixed with upper agar layer, 7 days, 37° C.
[6] = L1210, read-out: 1 h incubation IC50, 1 hour incubation with test substance at 37° C., then washed, 7 days in agar

Row | SMILES | IC50 [1, 3] | IC50 [1, 4] | further results
1 | CN[C@H]1C[C@H](O[C@H]2C[C@](O)(C(C)O)Cc3c(O)c4c(c(O)c32)C(=O)c2c(OC)cccc2C4=O)O[C@@H](C)[C@H]1O (some centres unmarked) [compound 32, 3'-N-Methyl-13-dihydrodaunorubicin] | 0.5 µg/mL (≈ 0.92 µM) | 1.3 µg/mL (≈ 2.39 µM) | 
2 | CC[C@@]1(O)C[C@H](O[C@H]2C[C@H](N(C)Cc3ccc(Br)cc3)[C@H](O)[C@H](C)O2)c2c(O)c3c(c(O)c2[C@H]1O)C(=O)c1cccc(O)c1C3=O [compound 23, 7-O-(3'-N-(4-Bromobenzyl)-3'-N-methyl-α-L-daunosaminyl)-β-rhodomycinone] | 0.08 µg/mL (≈ 0.115 µM) | > 1 µg/mL | 
3 | CC[C@@]1(O)C[C@H](O[C@H]2C[C@H](N(C)Cc3ccccc3)[C@H](O)[C@H](C)O2)c2c(O)c3c(c(O)c2[C@H]1O)C(=O)c1cccc(O)c1C3=O [compound 9, 7-O-(3'-N-Benzyl-3'-N-methyl-α-L-daunosaminyl)-β-rhodomycinone] | 0.028 µg/mL (≈ 0.0452 µM) | 0.32 µg/mL (≈ 0.516 µM) | 
4 | CCCN(C)[C@H]1C[C@H](O[C@H]2C[C@](O)(CC)[C@H](O)c3c(O)c4c(c(O)c32)C(=O)c2c(O)cccc2C4=O)O[C@@H](C)[C@H]1O [compound 12, 7-O-(3'-N-Methyl-3'-N-propyl-α-L-daunosaminyl)-β-rhodomycinone] | 0.026 µg/mL (≈ 0.0455 µM) | 0.1 µg/mL (≈ 0.175 µM) | 
5 | CC[C@@]1(O)C[C@H](O[C@H]2C[C@H](N(C)Cc3ccccc3)[C@H](O)[C@H](C)O2)c2c(O)c3c(c(O)c2[C@H]1O[C@H]1C[C@H](N(C)Cc2ccccc2)[C@H](O)[C@H](C)O1)C(=O)c1cccc(O)c1C3=O [compound 28, 7,10-O-bis-(3'-N-Benzyl-3'-N-methyl-α-L-daunosaminyl)-β-rhodomycinone] | 0.0065 µg/mL (≈ 0.00762 µM) | 0.12 µg/mL (≈ 0.141 µM) | 
6 | CC[C@@]1(O)C[C@H](O[C@H]2C[C@H](N(C)CC#N)[C@H](O)[C@H](C)O2)c2c(O)c3c(c(O)c2[C@H]1O)C(=O)c1cccc(O)c1C3=O [compound 7, 7-O-(3'-N-Cyanomethyl-3'-N-methyl-α-L-daunosaminyl)-β-rhodomycinone] |  |  | IC50 [1, 5]: 0.013 µg/mL (≈ 0.0229 µM); IC50 [1, 6]: 0.021 µg/mL (≈ 0.0369 µM)
7 | CC[C@@]1(O)C[C@H](O[C@H]2C[C@H](N(C)CC#N)[C@H](O)[C@H](C)O2)c2c(O)c3c(c(O)c2[C@H]1O)C(=O)c1c(O)ccc(O)c1C3=O [compound 8, 7-O-(3'-N-Cyanomethyl-3'-N-methyl-α-L-daunosaminyl)-β-isorhodomycinone] |  |  | IC50 [1, 5]: 0.042 µg/mL (≈ 0.0718 µM); IC50 [1, 6]: 0.2 µg/mL (≈ 0.342 µM)
8 | CCCCCN(C)[C@H]1C[C@H](O[C@H]2C[C@](O)(CC)[C@H](O)c3c(O)c4c(c(O)c32)C(=O)c2c(O)ccc(O)c2C4=O)O[C@@H](C)[C@H]1O [compound 27, 7-O-(3'-N-Methyl-3'-N-pentyl-α-L-daunosaminyl)-β-isorhodomycinone] | 0.06 µg/mL (≈ 0.0975 µM) | > 1 µg/mL | 
9 | CC[C@@]1(O)C[C@H](O[C@H]2C[C@H](N(C)C=O)[C@H](O)[C@H](C)O2)c2c(O)c3c(c(O)c2[C@H]1O)C(=O)c1cccc(O)c1C3=O [compound 6, 7-O-(3'-N-Formyl-3'-N-methyl-α-L-daunosaminyl)-β-rhodomycinone] |  |  | IC50 [1, 5]: 0.044 µg/mL (≈ 0.0789 µM); IC50 [1, 6]: 0.15 µg/mL (≈ 0.269 µM)
10 | CC[C@@]1(O)C[C@H](O[C@H]2C[C@H](NC)[C@H](O)[C@H](C)O2)c2c(O)c3c(c(O)c2[C@H]1O)C(=O)c1c(O)ccc(O)c1C3=O [compound 3, 7-O-(3'-N-Methyl-α-L-daunosaminyl)-β-isorhodomycinone] | 0.11 µg/mL (≈ 0.202 µM) | 0.13 µg/mL (≈ 0.238 µM) | 
11 | COc1cccc2c1C(=O)c1c(O)c3c(c(O)c1C2=O)C[C@@](O)(C(C)=O)C[C@@H]3O[C@H]1C[C@H](N)[C@H](O)[C@H](C)O1 [daunomycin, 7-O-α-L-daunosaminyl-daunomycinone] |  |  | photolytic decomposition on exposure to light [2]: photolytically decomposed on exposure to light
12 | CCCCCN(C)[C@H]1C[C@H](O[C@H]2C[C@](O)(CC)[C@H](O[C@H]3C[C@H](N(C)CCCCC)[C@H](O)[C@H](C)O3)c3c(O)c4c(c(O)c32)C(=O)c2c(O)cccc2C4=O)O[C@@H](C)[C@H]1O [compound 29, 7,10-O-bis-(3'-N-Methyl-3'-N-pentyl-α-L-daunosaminyl)-β-rhodomycinone] | 0.1 µg/mL (≈ 0.123 µM) | 0.6 µg/mL (≈ 0.738 µM) | 
13 | CCCCCCCN(C)[C@H]1C[C@H](O[C@H]2C[C@](O)(CC)[C@H](O)c3c(O)c4c(c(O)c32)C(=O)c2c(O)cccc2C4=O)O[C@@H](C)[C@H]1O [compound 20, 7-O-(3'-N-Heptyl-3'-N-methyl-α-L-daunosaminyl)-β-rhodomycinone] | 0.38 µg/mL (≈ 0.605 µM) | 1.9 µg/mL (≈ 3.03 µM) | 
14 | CC[C@@]1(O)C[C@H](O[C@H]2C[C@H](NC)[C@H](O)[C@H](C)O2)c2c(O)c3c(c(O)c2[C@H]1C(=O)OC)C(=O)c1c(O)ccc(O)c1C3=O [compound 5, 7-O-(3'-N-Methyl-α-L-daunosaminyl)-ε-isorhodomycinone] | 0.28 µg/mL (≈ 0.477 µM) | > 1 µg/mL | 
15 | CCCCCCCCN(C)[C@H]1C[C@H](O[C@H]2C[C@](O)(CC)[C@H](O)c3c(O)c4c(c(O)c32)C(=O)c2c(O)cccc2C4=O)O[C@@H](C)[C@H]1O [compound 21, 7-O-(3'-N-Octyl-3'-N-methyl-α-L-daunosaminyl)-β-rhodomycinone] | 0.46 µg/mL (≈ 0.717 µM) | 2.8 µg/mL (≈ 4.36 µM) | 
16 | CC[C@@]1(O)C[C@H](O[C@H]2C[C@H](NC)[C@H](O)[C@H](C)O2)c2c(O)c3c(c(O)c2[C@H]1O[C@H]1C[C@H](NC)[C@H](O)[C@H](C)O1)C(=O)c1cccc(O)c1C3=O [compound 15, 7,10-O-bis-(3'-N-Methyl-α-L-daunosaminyl)-β-rhodomycinone] | > 1 µg/mL | > 1 µg/mL | 
17 | CCN(C)[C@H]1C[C@H](O[C@H]2C[C@](O)(CC)[C@H](O)c3c(O)c4c(c(O)c32)C(=O)c2c(O)cccc2C4=O)O[C@@H](C)[C@H]1O [compound 11] | 0.007 µg/mL (≈ 0.0126 µM) | 0.08 µg/mL (≈ 0.143 µM) | 
18 | CC[C@@]1(O)C[C@H](O[C@H]2C[C@H](NC)[C@H](O)[C@H](C)O2)c2c(O)c3c(c(O)c2[C@H]1O)C(=O)c1cccc(O)c1C3=O [compound 2, 7-O-(3'-N-Methyl-α-L-daunosaminyl)-β-rhodomycinone hydrochloride] |  |  | 1 h incubation IC50 ([1]; 1 hour incubation with test substance at 37° C., then washed, 7 days in agar, hydrochloride): 0.026 µg/mL
19 | CCCCCCN(C)[C@H]1C[C@H](O[C@H]2C[C@](O)(CC)[C@H](O)c3c(O)c4c(c(O)c32)C(=O)c2c(O)cccc2C4=O)O[C@@H](C)[C@H]1O [compound 19, 7-O-(3'-N-Hexyl-3'-N-methyl-α-L-daunosaminyl)-β-rhodomycinone] | 0.13 µg/mL (≈ 0.212 µM) | 1.2 µg/mL (≈ 1.96 µM) | 
20 | CC[C@@]1(O)C[C@H](O[C@H]2C[C@H](N(C)C(C)=O)[C@H](O)[C@H](C)O2)c2c(O)c3c(c(O)c2[C@H]1C(=O)OC)C(=O)c1c(O)ccc(O)c1C3=O [compound 14, 7-O-(3'-N-Acetyl-3'-N-methyl-α-L-daunosaminyl)-ε-isorhodomycinone] | 0.5 µg/mL (≈ 0.794 µM) | > 1 µg/mL | 
21 | CCCCCN(C)[C@H]1C[C@H](O[C@H]2C[C@](O)(CC)[C@H](O)c3c(O)c4c(c(O)c32)C(=O)c2c(O)cccc2C4=O)O[C@@H](C)[C@H]1O [compound 18, 7-O-(3'-N-Methyl-3'-N-pentyl-α-L-daunosaminyl)-β-rhodomycinone] | 0.075 µg/mL (≈ 0.125 µM) | 0.48 µg/mL (≈ 0.8 µM) | 
22 | CC[C@@]1(O)C[C@H](O[C@H]2C[C@H](NC)[C@H](O)[C@H](C)O2)c2c(O)c3c(c(O)c2[C@H]1O)C(=O)c1cccc(O)c1C3=O [compound 1, 7-O-(3'-N-Methyl-α-L-daunosaminyl)-β-rhodomycinone] |  |  | IC50 [1, 5]: 0.02 µg/mL (≈ 0.0378 µM); IC50 [1, 6]: 0.038 µg/mL (≈ 0.0718 µM)
23 | CCCCN(C)[C@H]1C[C@H](O[C@H]2C[C@](O)(CC)[C@H](O)c3c(O)c4c(c(O)c32)C(=O)c2c(O)cccc2C4=O)O[C@@H](C)[C@H]1O [compound 13, 7-O-(3'-N-Butyl-3'-N-methyl-α-L-daunosaminyl)-β-rhodomycinone] | 0.018 µg/mL (≈ 0.0307 µM) | 0.125 µg/mL (≈ 0.213 µM) | 
24 | CC[C@@]1(O)C[C@H](O[C@H]2C[C@H](N(C)Cc3ccc(Cl)cc3)[C@H](O)[C@H](C)O2)c2c(O)c3c(c(O)c2[C@H]1O)C(=O)c1cccc(O)c1C3=O [compound 22, 7-O-(3'-N-(4-Chlorobenzyl)-3'-N-methyl-α-L-daunosaminyl)-β-rhodomycinone] | 0.026 µg/mL (≈ 0.0397 µM) | 0.95 µg/mL (≈ 1.45 µM) | 
25 | CC[C@@]1(O)C[C@H](O[C@H]2C[C@H](N(C)Cc3ccc(C#N)cc3)[C@H](O)[C@H](C)O2)c2c(O)c3c(c(O)c2[C@H]1O)C(=O)c1cccc(O)c1C3=O [compound 25, 7-O-(3'-N-(4-Cyanobenzyl)-3'-N-methyl-α-L-daunosaminyl)-β-rhodomycinone] |  |  | IC50 [1, 5]: 0.11 µg/mL (≈ 0.171 µM); IC50 [1, 6]: > 1 µg/mL
26 | CC[C@@]1(O)C[C@H](O[C@H]2C[C@H](N(C)Cc3ccc([N+](=O)[O-])cc3)[C@H](O)[C@H](C)O2)c2c(O)c3c(c(O)c2[C@H]1O)C(=O)c1cccc(O)c1C3=O [compound 24, 7-O-(3'-N-(4-Nitrobenzyl)-3'-N-methyl-α-L-daunosaminyl)-β-rhodomycinone] |  |  | IC50 [1, 5]: 0.16 µg/mL (≈ 0.241 µM); IC50 [1, 6]: 2.5 µg/mL (≈ 3.76 µM)
